Data: paper PMC12364333, “Degradation of catecholate, hydroxamate, and carboxylate model siderophores by extracellular enzymes” (PLOS One, 2025)

Tested on: T1, phenol oxidase (a tyrosinase)
T1 construct: gene PPO3
Assay: initial rates of product formation ([…] h); Lineweaver-Burk plot
Type: biochemical, Agaricus bisporus
Conditions: O2 as oxidant; buffered at pH 7.0 (25 mM phosphate) and 20 °C in the general protocol; 0.01-1 mM protochelin; apo siderophore

- Km: 430 µM
Structure (SMILES): O=C(NCCCCNC(=O)[C@H](CCCCNC(=O)c1cccc(O)c1O)NC(=O)c1cccc(O)c1O)c1cccc(O)c1O [protochelin]
